Consider twelve molecules from US7501397B2, “Helical peptidomimetics with enhanced activity” (The Brigham and Women's Hospital, Inc., priority 2004, dated 2009).

Like-named read-outs stand apart in the source and are kept apart here. Non-standard residues stand in square brackets, D forms with d. Residues, ends and D or L forms follow the SMILES beside them. *: point of attachment. Boc = CC(C)(C)OC(=O)*; Aib = CC(C)(N)C(=O)O; Bn = c1ccc(C*)cc1

Assay [1] addresses T1, γ-secretase (Homo sapiens, UniProt P49768). Nature of the assay: cell-free γ-secretase assay using detergent-solubilized membranes from HeLa cells and a recombinant APP-based substrate. The format is biochemical. Also noted: detergent-solubilized membranes from HeLa cells; endogenous in cells; host or cells: HeLa cells (detergent-solubilized membranes). As to the method:
Compounds were tested in a γ-secretase assay using detergent-solubilized membranes from HeLa cells and a recombinant APP-based substrate (Table 2, 18). […] Moreover, the γ-secretase inhibition appears to show dependence on length.

Assay [2] concerns Aβ production in Chinese hamster ovary (CHO) cells stably transfected with human APP. Nature of the assay: cell-based assay of total Aβ production in CHO cells stably transfected with human APP. From the text:
Based on the helical model for the APP transmembrane domain, short peptides were designed to adopt a similar conformation that block γ-secretase activity. Judicious replacement of selected residues of short APP-derived peptides with 2-aminoisobutyric acid (Aib), a known helix-inducing amino acid (19, 20), provided peptides that, in principle, mimic the γ-secretase cleavage site on one face of the helix, with Aib residues on the other face. Aib-containing peptides were identified that inhibit Aβ production in APP-transfected cells with 50 percent inhibitory concentrations (IC50's) as low as 2 μM. […] The crystal structure of this compound has been determined, and the peptide is fully helical (19). In certain embodiments the compounds of the invention have structures that are based on the partial APP sequence Val-Gly-Gly-Val-Val-Ile-Ala-Thr-Val-Ile-Val-Ile (SEQ ID NO:12; see FIG. 1). Basing the structures of the compounds of the invention on the partial APP sequence could enhance in vivo specificity of the compounds.
The top set of peptidomimetics (SEQ ID NOs: 1-5) was designed considering the cleavage leading to Aβ42, and the bottom set (SEQ ID NOs: 6-10) was designed considering the cleavage site leading to Aβ40. IC50 is the concentration of compound that reduced production of total Aβ by 50% in a cell-based assay using Chinese hamster ovary (CHO) cells stably transfected with human APP.
Starting from the reference D-decapeptide having SEQ ID NO:10 (IC50=90 nM), the enantiomers of the helical peptide L-series were tested for inhibitory activity. […] This greater than 40-fold loss of activity compared to the cell-free assay may be due to the need to enter into and/or cross cell membranes or some susceptibility to metabolic degradation.

The target in assay [3] is T1, γ-secretase. The conditions noted are these: photoaffinity labeling; Kornilova et al. 2005; cited from earlier work.
Assay [4] concerns the target T1, γ-secretase. Also noted: detergent-solubilized membranes from HeLa cells; endogenous in cells; host or cells: HeLa cells (detergent-solubilized membranes). The conditions noted are these: value from Ref. 22, cited from earlier work.
Where [5] appears, read: APP-transfected CHO cells, read-out: IC50, cell-based assay.
[6] abbreviates: CHO cells stably transfected with human APP, total Aβ, read-out: IC50 (concentration that reduced production of total Aβ by 50%).

For `CC[C@@H](C)[C@@H](NC(=O)[C@H](NC(=O)[C@H](NC(=O)C(C)(C)NC(=O)CNC(=O)[C@H](NC(=O)OC(C)(C)C)C(C)C)C(C)C)C(C)C)C(=O)NC(C)(C)C(=O)N[C@@H](C(=O)N[C@@H](C(=O)NC(C)(C)C(=O)N[C@@H](C(=O)N[C@@H](C(=O)NC(C)(C)C(=O)OC)[C@H](C)CC)C(C)C)C(C)C)[C@H](C)OCc1ccccc1` [SEQ ID NO:18 D-peptide, Boc-Val-Gly-Aib-Val-Val-Ile-Aib-Thr(OBz)-Val-Aib-Val-Ile-Aib-OMe] (Boc-[dV]G[Aib][dV][dV][dI][Aib][dT](Bn)[dV][Aib][dV][dI][Aib]-OMe), the “IC50, in words” value on γ-secretase [1] is on record as “subnanomolar”. Also, the “times more active than the other analogs of the D-series” value on γ-secretase [1] (D-series, cell-free assay) was determined as 100 times. The IC50 on γ-secretase [1] (read-out: IC50, cell-free γ-secretase assay) came out at 0.14 nM; in assay [2] (setting [5]), 9 ± 1 nM. Moreover, the “loss of activity in cell-based assay compared to the cell-free assay” value in assay [2] (cell-based vs cell-free IC50) is reported as “greater than 40 fold”.

For the molecule “Ac-Val-Gly-Aib-Val-Val-Ile-Aib-Thr(OBz)-Val-Aib-Val-Val-Aib-NH2 (Ac-VG[Aib]VVI[Aib]XV[Aib]VV[Aib]-NH2; not fully specified (some residues); printed as Ac-Val-Gly-Aib-Val-Val-Ile-Aib-Thr(OBz)-Val-Aib-Val-Val-Aib-NH2) [SEQ ID NO:23 D-peptide]”, the “site of interaction with γ-secretase” value in the assay with γ-secretase [3] is on record as “not only interact with the initial substrate-binding site but also extend into the active site”.

Regarding “Boc-Ala-Thr(OBz)-Aib-Ile-Val-Aib-OMe [SEQ ID NO:1]”, in assay [2] (setting [6]), the IC50 is 25000 nM.

As for “Boc-D-Val-Gly-Aib-D-Val-D-Val-D-BPA-Aib-D-Thr(OBz)-D-Val-Aib-OMe [SEQ ID NO:11]”, the IC50 in assay [2] (setting [5]) was determined as 100 nM.

In the case of “Boc-Gly-Aib-Val-Val-Ile-Aib-Thr(OBz)-Val-Aib-OMe [SEQ ID NO:9]”, the IC50 in assay [2] (setting [6]) came out at 3000 nM.

Regarding “Boc-Gly-Val-Aib-Ile-Ala-Thr(OBz)-Aib-Ile-Val-Aib-OMe [SEQ ID NO:5]”, the IC50 in assay [2] (setting [6]) was 5000 nM.

On to “Boc-Ile-Ala-Thr(OBz)-Aib-Ile-Val-Aib-OMe [SEQ ID NO:2]”, for which the IC50 in assay [2] (setting [6]) was 15000 nM.

On to “Boc-Val-Aib-Ile-Ala-Thr(OBz)-Aib-Ile-Val-Aib-OMe [SEQ ID NO:4]”, for which the IC50 in assay [2] (setting [6]) stood at 2000 nM.

With “Boc-Val-Gly-Aib-Val-Val-Ile-Aib-Thr(OBz)-Val-Aib-OMe [SEQ ID NO:10 D-peptide]”, on γ-secretase [4] (50% inhibition of Aβ40 production, read-out: Cell-free Assay IC50), the IC50 was 90 nM. Moreover, the “site of interaction with γ-secretase” value at γ-secretase [3] is reported as “interacts with the initial substrate-binding site, but not the active site”.

Take “Boc-Val-Gly-Aib-Val-Val-Ile-Aib-Thr(OBz)-Val-Aib-OMe [SEQ ID NO:10 L-peptide]”: the IC50 at γ-secretase [4] (reference decapeptide, read-out: IC50, cell-free γ-secretase assay) is 30000 nM; in assay [2] (setting [6]), 3000 nM.

For the molecule “Boc-Val-Ile-Aib-Thr(OBz)-Val-Aib-OMe [SEQ ID NO:6]”, in assay [2] (setting [6]), the IC50 was 12000 nM.

Turning to “Boc-Val-Val-Ile-Aib-Thr(OBz)-Val-Aib-OMe [SEQ ID NO:7]”, the IC50 in assay [2] (setting [6]) is 6000 nM.
